According to BindingDB's records for doi:10.1021/jm00065a015 (Smithkline Beecham Pharmaceuticals, 1993):

Target: T1, 5-hydroxytryptamine receptor 2C (Rattus norvegicus, UniProt P08909)
T1 sequence (P08909 whole entry): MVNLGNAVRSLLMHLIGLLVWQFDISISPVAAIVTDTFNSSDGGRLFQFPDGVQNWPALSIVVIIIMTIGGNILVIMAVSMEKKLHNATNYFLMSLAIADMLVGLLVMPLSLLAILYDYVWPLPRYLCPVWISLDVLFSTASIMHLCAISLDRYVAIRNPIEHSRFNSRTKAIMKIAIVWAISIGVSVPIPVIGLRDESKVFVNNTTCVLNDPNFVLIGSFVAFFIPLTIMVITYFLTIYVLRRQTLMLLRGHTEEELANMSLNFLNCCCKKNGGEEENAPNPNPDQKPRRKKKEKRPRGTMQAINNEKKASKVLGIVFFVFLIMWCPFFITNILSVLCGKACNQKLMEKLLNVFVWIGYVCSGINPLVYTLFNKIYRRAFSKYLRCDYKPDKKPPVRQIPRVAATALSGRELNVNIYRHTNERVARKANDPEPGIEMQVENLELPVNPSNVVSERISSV
Experiment: Binding affinity for 5-hydroxytryptamine 1C receptor was determined

`NCCc1c[nH]c2ccc(C(N)=O)cc12` [[3H]-5-carboxamidotryptamine] gave a Kd of 631 nM.
